Data reported in patent US20180282323A1, “Mesoionic imidazole derivatives as insecticides” (BAYER CROPSCIENCE AKTIENGESELLSCHAFT, priority 2015, published 2018).
Read-outs that look alike come from different tables or passages of the source.

Columns and labels:
Myzus persicae [1] = assay: Myzus persicae oral test; assay type: in vivo; settings: application rate 20 ppm, oral uptake through parafilm, after 5 days
Procedure: Myzus persicae—Oral Test Solvent: 100 parts by weight of acetone
To produce an appropriate active ingredient formulation, 1 part by weight of active ingredient is dissolved with the stated parts by weight of solvent and made up with water until the desired concentration is attained.
50 μl of the active ingredient formulation are transferred into microtitre plates and made up to a final volume of 200 μl with 150 μl of IPL41 insect medium (33%+15% sugar). Subsequently, the plates are sealed with parafilm, which a mixed population of green peach aphids (Myzus persicae) within a second microtitre plate is able to puncture and imbibe the solution through it.
After 5 days, the efficacy in % is determined. 100% means that all the aphids have been killed; 0% means that no aphids have been killed.

[2] = log P by HPLC on reversed-phase column (EEC directive 79/831 Annex V.A8); assay type: physicochemical; settings: for log p a): HPLC on reversed-phase column; for log p: HPLC on reversed-phase column (footnote a)
In short: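 Reversed-phase (C18) HPLC at 43° C, following EEC directive 79/831 Annex V.A8.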

Myzus persicae [3] = assay: Myzus persicae spray test (Chinese cabbage leaf discs); assay type: in vivo; settings: application rate 500 g/ha, after 6 days
Procedure: Myzus persicae—Spray Test Solvent: 78 parts by weight of acetone • • 1.5 parts by weight of dimethylformamide Emulsifier: alkylaryl polyglycol ether
To produce a suitable active ingredient formulation, 1 part by weight of active ingredient is dissolved with the stated parts by weight of solvent and made up with water containing an emulsifier concentration of 1000 ppm until the desired concentration is attained. To produce further test concentrations, the formulation is diluted with emulsifier-containing water.
Discs of Chinese cabbage leaves (Brassica pekinensis) infested by all stages of the green peach aphid (Myzus persicae) are sprayed with an active ingredient formulation of the desired concentration.
After 6 days, the efficacy in % is determined. 100% means that all the aphids have been killed; 0% means that no aphids have been killed.

Row | SMILES | efficacy (Myzus persicae [1]) | log p a) [2] | log p [2] | also measured
1 | Cc1ncc(Cn2c([O-])c(C(=O)NC3CC3)[n+]3cccc(C)c23)s1 [Example I-1-223] | 100% | 1.45 | – | –
2 | COC(=O)c1c([O-])n(Cc2ccc(Cl)nc2)c2ccc(F)c[n+]12 [Example I-1-155] | 100% | – | 1.43 | –
3 | O=C(COc1ccc(F)cc1)c1c([O-])n(Cc2ccc(Cl)nc2)c2cccc[n+]12 [Example I-1-031] | 100% | – | 2.27 | –
4 | O=C(CCl)c1c([O-])n(Cc2ccc(Cl)nc2)c2c(F)cc(F)c[n+]12 [Example I-1-110] | 100% | – | 1.96 | –
5 | O=C(CCl)c1c([O-])n(Cc2cnc(Cl)c(Cl)c2)c2cccc[n+]12 [Example I-1-168] | 100% | – | 2.11 | –
6 | O=C(Nc1ccc(Cl)nc1)c1c([O-])n(Cc2cnc(Cl)s2)c2cccc[n+]12 [Example I-1-146] | 100% | – | 2.55 | –
7 | Cc1ccc[n+]2c(C(=O)Cn3cncn3)c([O-])n(Cc3cnc(Cl)s3)c12 [Example I-1-096] | 100% | – | 1.31 | –
8 | COC(=O)c1c([O-])n(Cc2ccc(Cl)nc2)c2nccc[n+]12 [Example I-4-001, 1-[(6-Chloropyridin-3-yl)methyl]-3-(methoxycarbonyl)-1H-imidazo[1,2-a]pyrimidin-4-ium-2-olate] | – | – | – | pest or weed control at 20 ppm (Myzus persicae [1]; Myzus persicae, 120 h, read-out: efficacy): 100%; chromatographic logP [2]: 1.15; chromatographic logP ([2]; pH 2.7): 1.15
9 | CCOCC(=O)c1c([O-])n(Cc2ccc(C(F)(F)F)nc2)c2cccc[n+]12 [Example I-1-188] | 100% | – | 1.72 | –
10 | O=C(COc1cccnc1)c1c([O-])n(Cc2cnc(Cl)s2)c2cccc[n+]12 [Example I-1-018] | 100% | – | 1 | –
11 | COc1ccccc1NC(=O)c1c([O-])n(Cc2ccc(Cl)nc2)c2cccc[n+]12 [Example I-1-326] | 100% | 2.55 | – | –
12 | CC(C)[S+]([O-])CC(=O)c1c([O-])n(Cc2cnc(Cl)s2)c2cccc[n+]12 (stereo not shown) [Example I-1-038] | 100% | – | 1.32 | –
13 | Cc1ccc2n(Cc3ccc(Cl)nc3)c([O-])c(C(=O)CCl)[n+]2c1 [Example I-1-091] | 100% | – | 1.87 | –
14 | CCOCC(=O)c1c([O-])n(Cc2cnc(Cl)c(Cl)c2)c2cccc[n+]12 [Example I-1-192] | 100% | – | 1.93 | –
15 | COc1ccc(NC(=O)c2c([O-])n(Cc3cnc(Cl)s3)c3c(C)ccc[n+]23)cc1 [Example I-1-208] | 100% | 2.91 | – | –
16 | COC(=O)COCC(=O)c1c([O-])n(Cc2cnc(Cl)s2)c2cccc[n+]12 [Example I-1-075] | 100% | – | 1.41 | –
17 | O=C(CCl)c1c([O-])n(Cc2ccc(Cl)nc2)c2cccc[n+]12 [Example I-1-001] | 100% | – | 1.62 | –
18 | O=C(NC1CC1)c1c([O-])n(Cc2ccc(Cl)nc2)c2cccc[n+]12 [Example I-1-133] | 90% | – | 1.85 | –
19 | Cc1cnc(Cn2c([O-])c(C(=O)Nc3ccccc3)[n+]3ccccc23)cn1 [Example I-1-218] | 100% | 2.05 | – | –
20 | COC(=O)c1c([O-])n(Cc2cncc(Cl)c2)c2cccc[n+]12 [Example I-1-158] | 100% | – | 1.15 | –
21 | CCOCC(=O)c1c([O-])n(Cc2ccc(Cl)nc2)c2cc(C(F)(F)F)cc[n+]12 [Example I-1-079] | 90% | – | 2.17 | –
22 | CC(c1cnc(Cl)s1)n1c([O-])c(C(=O)NC2(C#N)CC2)[n+]2ccccc12 (stereo not shown) [Example I-1-289] | 100% | 1.86 | – | –

Row | SMILES | efficacy (Myzus persicae [1]) | log p a) [2] | log p [2] | also measured
23 | Cc1cnc(Cn2c([O-])c(C(=O)Nc3c(F)cccc3F)[n+]3ccccc23)cn1 [Example I-1-269] | 100% | 1.75 | – | –
24 | O=C(COc1ccccc1Cl)c1c([O-])n(Cc2cnc(Cl)s2)c2cccc[n+]12 [Example I-1-078] | 90% | – | 2.77 | –
25 | O=C(COc1ccccn1)c1c([O-])n(Cc2cnc(Cl)s2)c2cccc[n+]12 [Example I-1-088] | 100% | – | 1.32 | –
26 | Cc1ccc[n+]2c(C(=O)Nc3ccccc3)c([O-])n(Cc3cnc(Cl)s3)c12 [Example I-1-211] | 90% | 3.1 | – | –
27 | CCNC(=O)c1c([O-])n(C(C)c2ccc(Cl)nc2)c2cccc[n+]12 (stereo not shown) [Example I-1-228] | 100% | 1.72 | – | –
28 | O=C(CCl)c1c([O-])n(Cc2ccc(F)nc2)c2cccc[n+]12 [Example I-1-207] | 100% | 1.38 | – | –
29 | Cc1ccc[n+]2c(C(=O)CCl)c([O-])n(Cc3ccc(Cl)nc3)c12 [Example I-1-159] | 100% | – | 1.78 | –
30 | N#Cc1cccc(F)c1NC(=O)c1c([O-])n(Cc2cnc(Cl)s2)c2cccc[n+]12 [Example I-1-307] | – | 2.2 | – | efficacy (Myzus persicae [3]): 90%
31 | Cc1ccc2n(Cc3cnc(Cl)s3)c([O-])c(C(=O)CCl)[n+]2c1 [Example I-1-125] | 90% | – | 1.99 | –
32 | Cc1ccc[n+]2c(C(=O)COC3CCCCC3)c([O-])n(Cc3cnc(Cl)s3)c12 [Example I-1-294] | 90% | 2.77 | – | –
33 | C#Cc1cccnc1NC(=O)c1c([O-])n(Cc2cnc(Cl)s2)c2cccc[n+]12 [Example I-1-303] | – | 1.3 | – | efficacy (Myzus persicae [3]): 90%
34 | CC(C)(C)NC(=O)c1c([O-])n(Cc2cnc(Cl)s2)c2cccc[n+]12 [Example I-1-151] | 100% | – | 2.39 | –
35 | COCC(=O)c1c([O-])n(Cc2ccc(Cl)nc2)c2cccc(C)[n+]12 [Example I-1-166] | 100% | – | 1.33 | –
36 | N#Cc1ccc[n+]2c(C(=O)CCl)c([O-])n(Cc3ccc(Cl)nc3)c12 [Example I-1-172] | 90% | – | 1.78 | –
37 | COCC(=O)c1c([O-])n(Cc2ccc(Cl)nc2)c2c(Cl)ccc[n+]12 [Example I-1-164] | 90% | – | 1.59 | –
38 | CCOCC(=O)c1c([O-])n(Cc2cnc(Cl)s2)c2ccc(Cl)c[n+]12 [Example I-1-119] | 100% | – | 1.96 | –
39 | Cc1cc[n+]2c(C(=O)CCl)c([O-])n(Cc3cnc(Cl)s3)c2c1 [Example I-1-126] | 90% | – | 1.96 | –
40 | O=C(COCc1ccccc1)c1c([O-])n(Cc2cncnc2)c2cccc[n+]12 [Example I-1-059] | 100% | – | 1.44 | –
41 | COC(=O)c1c([O-])n(Cc2cnc(Cl)s2)c2cccc[n+]12 [Example I-1-085, 1-[(2-Chloro-1,3-thiazol-5-yl)methyl]-3-(methoxycarbonyl)-1H-imidazo[1,2-a]pyridin-4-ium-2-olate] | – | – | – | efficacy (Myzus persicae [3]): 90%; chromatographic logP [2]: 1.23; chromatographic logP ([2]; pH 2.7): 1.23
42 | Cc1cccc2n(Cc3cnc(Cl)s3)c([O-])c(C(=O)CCl)[n+]12 [Example I-1-080] | – | – | 1.81 | efficacy (Myzus persicae [3]): 100%
43 | CCNC(=O)c1c([O-])n(Cc2cnc(C)cn2)c2cccc[n+]12 [Example I-1-244] | 90% | 1.07 | – | –
